Reference: publication PMC2063102 (British Journal of Cancer, 1998)
“And” between values parts separate entries of the source, which are not always exact repeats. Identical values can stand only once.

Legend:
Format in all cases: in vivo, C3H/HeN mice
MDAH-MCa-4 tumours [1] = assay: Tumour blood flow by 99mTc pertechnetate wash-out (clearance rate constant k); conditions: for time course of tumour blood flow inhibition: agent alone: 5-HT 700 µmol kg-1, DMXAA 70 µmol kg-1
MDAH-MCa-4 tumours [2] = assay: Tumour necrosis / residual viable tissue scored histologically (H&E sections)
MDAH-MCa-4 tumours [3] = assay: Tumour growth delay (time to reach 13 mm, treated minus control)

## NCCc1c[nH]c2ccc(O)cc12 [5-HT, 5-hydroxytryptamine]
MDAH-MCa-4 tumours [1]; 5-HT 700 µmol kg-1 co-administered with DMXAA, at 4 h
  dose-modifying factor (DMF) for blood flow inhibition by DMXAA: > 3
MDAH-MCa-4 tumours [1]; 5-HT alone 700 µmol kg-1 i.p.
  effect on tumour blood flow at 4 h: little effect
MDAH-MCa-4 tumours [1]
  time course of tumour blood flow inhibition: weak and transient inhibition
MDAH-MCa-4 tumours [2]; 5-HT 700 µmol kg-1 co-administered with DMXAA, at 12 h
  dose-modifying factor (DMF) for necrosis (DMXAA dose for 50% reduction of viable tissue): 2.3
MDAH-MCa-4 tumours [2]; 5-HT alone 700 µmol kg-1, 12 h (control 8.8%)
  necrotic fraction: 38%
MDAH-MCa-4 tumours [3]; 5-HT 700 µmol kg-1 co-administered with DMXAA
  dose-modifying factor (DMF) for growth delay (DMXAA dose for 5-day growth delay): 2.0
MDAH-MCa-4 tumours [3]; single agent i.p.: bioreductive drug at its MTD, DMXAA 80 µmol kg-1, 5-HT 700 µmol kg-1, mean ± s.e.m.
  Tumour growth delay, Expt 2: -2.9 + 0.7 days

## Cc1ccc2c(=O)c3cccc(CC(=O)O)c3oc2c1C [DMXAA, 5,6-dimethylxanthenone-4-acetic acid]
MDAH-MCa-4 tumours [1]; DMXAA 20 µmol kg-1 co-administered with 5-HT 700 µmol kg-1
  time to maximal tumour blood flow inhibition: ≤ 1 h
MDAH-MCa-4 tumours [1]; DMXAA alone i.p., 4 h after administration
  DMXAA dose giving 50% inhibition of tumour blood flow: 60 µmol/kg
MDAH-MCa-4 tumours [1]
  time course of tumour blood flow inhibition: progressive inhibition over 4 h with no recovery by 24 h
MDAH-MCa-4 tumours [2]; DMXAA 60 µmol kg-1 and above co-administered with 5-HT 700 µmol kg-1, 12 h
  necrosis: > 99%
MDAH-MCa-4 tumours [2]; DMXAA alone i.p., 12 h
  threshold dose for the necrotizing effect: approximately 60 µmol kg-1
MDAH-MCa-4 tumours [2]; between 1 and 4 days after DMXAA 80 µmol kg-1
  doubling time of fraction of viable tissue after treatment: 1.0 days
MDAH-MCa-4 tumours [3]; mouse, in vivo
  predicted growth delay (from regrowth of residual viable tissue): 6.0 days and 5.8 days

## Nc1n[n+]([O-])c2ccccc2[n+]1[O-] [TIRA, tirapazamine]
MDAH-MCa-4 tumours [3]; mouse, in vivo
  DMF relative to DMXAA alone (5-day growth delay): 2.6
  factor lowering the DMXAA dose required for a 5-day growth delay: 1.8
MDAH-MCa-4 tumours [3]; mouse, in vivo, ip
  Tumour growth delay (one experiment only, column not discernible): 2.7 ± 1.4 days
